Data taken from patent publication US20240261234A1, “USE OF C[…] THE TREATMENT OF NOCTURNAL SNORING” (GW Research Limited, priority 2014, published 2024).
Where “and” joins values, the source holds several entries; their conditions need not be identical. Equal values may be shown once. Entries after “also recorded” stand apart in the source; their conditions may differ.

Tests used:
[1] = tested on: nocturnal snoring in a patient with Doose Syndrome; assay: Expanded access compassionate use program: nocturnal snoring with CBD therapy; format: in vivo, children and young adults
Description: (§1) Of 137 children and young adults with severe, childhood onset treatment-resistant epilepsy (TRE), six suffered from Doose Syndrome. These subjects were tested with a highly purified extract of cannabidiol (CBD) obtained from a cannabis plant. The participants in the study were part of an expanded access compassionate use program for CBD.
(§2) All of these patients with a diagnosis of Doose Syndrome presented with multiple seizure types which included tonic-clonic seizures; myoclonic seizures; atonic seizures; absence seizures; myoclonic-absence seizures; and tonic seizures. In addition nocturnal snoring was encountered by one of the patients in the study.
(§3) The patients then received a highly purified CBD extract (greater than 98% CBD w/w) in sesame oil, of known and constant composition, at a dose of 5 mg/kg/day in addition to their baseline anti-epileptic drug (AED) regimen.
Table 5 below describes the data that was collated for the other seizure types including nocturnal snoring.

[2] = tested on: seizures in treatment-resistant epilepsy characterised by Doose Syndrome; assay: Expanded access compassionate use program: seizure frequency with CBD therapy in Doose Syndrome; format: in vivo, children and young adults
Description: as §1, §2
Both patients entered a baseline period of 4 weeks when parents/caregivers kept prospective seizure diaries, noting all countable motor seizure types.
as §3
Laboratory testing for hematologic, liver, kidney function, and concomitant AED levels was performed at baseline, and after CBD therapy.
All patients were taking at least two concomitant anti-epileptic drugs. These included clobazam; diazepam; lacosamide; lamotrigine; levetiracetam; lorazepam; nordiazepam; n-desmethylclobazam; phenytoin; valproic acid; zonisamide. The average number of concomitant antiepileptic drugs being taken was 2.7. The majority took either clobazam and/or valproic acid.
There were 6 children and young adult patients who received at least 3 months of treatment all of whom suffered from treatment-resistant epilepsy which is characterised by Doose Syndrome.
The change from baseline in the number of different seizures and total number of seizures after 16 weeks treatment are summarized in Table 4 below.

[3] = Solubility of the drug substance in water; format: physicochemical
From the text: The drug substance, CBD is insoluble in water. Sesame oil was selected as an excipient to solubilize the drug substance.

[4] = tested on: apnea hypopnea index; details: short term; small trial; cited from earlier work
[5] = nocturnal snoring (n = 1), Doose Syndrome patient
[6] = absence seizures (n = 3), Doose Syndrome patients
[7] = atonic seizures (n = 2), Doose Syndrome patients
[8] = tonic-clonic seizures (n = 5), Doose Syndrome patients

Row | SMILES | Effect on occurrence of nocturnal snoring (in words) ([1]; a child with Doose Syndrome) | Patients with <50% reduction in nocturnal snoring [1, 5] [%] | Patients with >50% reduction in nocturnal snoring [1, 5] [%] | Patients with <50% reduction in absence seizures [2, 6] [%] | Patients with >50% reduction in absence seizures [2, 6] [%] | Number of Doose syndrome patients with a decrease in total seizure frequency ([2]; after 3 months of therapy, of 6 patients) | Patients with <50% reduction in atonic seizures [2, 7] [%] | Patients with >50% reduction in atonic seizures [2, 7] [%] | Effect on seizure sub-types associated with Doose Syndrome (in words) ([2]; patients not responding well to existing AED) | Change in baseline (%) in total seizure frequency ([2]; per subject (subjects 1-6, Doose Syndrome), after 16 weeks treatment, CBD 5 up to 25 mg/kg/day added to baseline AED) | >50% reduction in seizures (total seizures) ([2]; per subject (subjects 1-6, Doose Syndrome), after 16 weeks treatment, Yes/No) | Patients with <50% reduction in tonic-clonic seizures [2, 8] [%] | Patients with >50% reduction in tonic-clonic seizures [2, 8] [%] | Solubility in water [3] | Effect on apnea hypopnea index [4]
1 | C=C(C)[C@@H]1CCC(C)=C[C@H]1c1c(O)cc(CCCCC)cc1O [CBD, Cannabidiol] | completely eliminate the occurrence of nocturnal snoring | 0 | 100 | 0 | 100 | five | 50 | 50 | very effective treatment for all of the seizure sub-types; also recorded: significantly reduces the number of seizures | −100.0% (2×) and 65.8% and −67.4% and −68.7% and −92.0% | Yes (5×) and No | 20 | 80 | insoluble | 
2 | CCCCCc1cc(O)c2c(c1)OC(C)(C)[C@@H]1CCC(C)=C[C@@H]21 [dronabinol, Tetrahydro- cannabinol] |  |  |  |  |  |  |  |  |  |  |  |  |  |  | able to reduce the apnea hypopnea index
